Laboratory results as given in patent US7071197B2, “N,N-disubstituted diazocycloalkanes” (Recordati S.A., priority 2002, dated 2006).

How the values were obtained:
[1] = target: T1, rat D3 dopamine receptors (Rattus norvegicus, UniProt P19020); assay: [3H]-7-OH-DPAT binding to rat recombinant D3 dopamine receptors (SPA); conditions: for Ki: [3H]-7-OH-DPAT, CHO cell membranes, read-out: Binding affinity for D3 dopamine receptors Ki; for D3/5-HT1A: selectivity: ratio of Ki at D3 and Ki at 5-HT1A
T1 construct: expressed in transfected cells; host or cells: CHO cells (permanent expression)
Description: Cloned rat D3 dopamine receptors permanently expressed in CHO cells were used (Chio et al. Mol. Pharmacol. 45, 51–60, 1994). Membranes were prepared by mechanical disruption of cell pellets in ice cold 50 mM Tris, 5 mM EDTA, 5 mM EGTA, pH 7.4 followed by low (100 g), medium (20000 g) and high (80000 g) speed centrifugation steps. Competition radioligand binding experiments employed 11 drug concentrations run in duplicate in a scintillation proximity assay (SPA) format. The radioligand used was [^3H]-7-OH-DPAT (154 Ci/mmol). […] binding (75–95% of total) was defined with cold haloperidol added in excess (3 μM). Total binding was determined with buffer: 20 mM HEPES, 10 mM MgSO4, 150 mM NaCl, 1 mM EDTA (pH 7.4). Binding mixtures were made in flexible, 96-well, Wallac Micro-Beta plates by the addition of 11 μl of drug dilution, 11 μl of radioligand, and 178 μl of membrane/SPA bead suspension (100 mg of WGA-coated SPA beads incubated with 5–15 μg protein/plate in 10 ml binding buffer for 30 minutes at room temperature followed by low-speed centrifugation and resuspension in 2 ml binding buffer). After sealing and incubation at room temperature for 1 hour the plates were counted in a Wallac Micro-Beta scintillation counter.
IC50 values from both assay methods were estimated by fitting the data to a one-site competition model: Y=T/(1+10^log(X)−log(IC50)), where Y is the specific CPM's bound at concentration X and T is the specific CPM's bound in the absence of competitor. Inhibition constants (Ki) were calculated using the Cheng-Prushoff equation (Biochem. Pharmacol. 22: 3099–3108, 1973).

[2] = target: T2, human α1a-adrenoceptor (Homo sapiens, UniProt P35348); assay: [3H]prazosin binding to cloned human α1-adrenoceptor subtypes (α1a); conditions: for Ki: [3H]prazosin, CHO cell membranes, read-out: Binding affinity (Ki, nM) α1a; for α1a/5-HT1A: selectivity: ratio of Ki at α1a and Ki at 5-HT1A
T2 construct: expressed in transfected cells
T2 sequence (P35348 1-466): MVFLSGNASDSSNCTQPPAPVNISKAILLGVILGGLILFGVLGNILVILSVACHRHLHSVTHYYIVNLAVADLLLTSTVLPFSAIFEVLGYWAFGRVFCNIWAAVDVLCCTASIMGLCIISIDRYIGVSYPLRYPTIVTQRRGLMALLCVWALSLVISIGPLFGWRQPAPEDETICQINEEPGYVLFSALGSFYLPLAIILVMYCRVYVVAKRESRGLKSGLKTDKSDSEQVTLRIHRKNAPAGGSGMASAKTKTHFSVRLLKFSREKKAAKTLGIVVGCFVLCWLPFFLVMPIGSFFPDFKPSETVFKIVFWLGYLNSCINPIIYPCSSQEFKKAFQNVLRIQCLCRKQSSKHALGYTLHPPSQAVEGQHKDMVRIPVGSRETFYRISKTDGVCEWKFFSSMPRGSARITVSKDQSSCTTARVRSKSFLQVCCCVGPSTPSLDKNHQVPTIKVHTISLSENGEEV
Description: Binding to cloned human α1-adrenoceptor subtypes was performed in membranes from CHO cells (chinese hamster ovary cells) transfected by electroporation with DNA expressing the gene encoding each α1-adrenoceptor subtype. Cloning and stable expression of the human α1-adrenoceptor gene was performed as previously described (Testa et al. Pharmacol. Comm., 6: 79–86,1995).
CHO cells were grown in suspension in Iscove's modified Dulbecco's medium, supplemented with 10% fetal calf serum and gentamicin (50 μg/ml), at 37° C. in 7% CO2 in an humidified incubator. Cells were collected by centrifugation, lised in ice-cold Tris 5 mM and EDTA 5 mM buffer (pH 7.4) and gently homogenised. Homogenates were centrifuged at 40000×g×20 min and pellets were resuspended in a small volume of ice-cold Tris 5 mM and EDTA 5 mM buffer (pH 7.4) and immediately frozen and stored at −80° C. until use.
CHO cell membranes were resuspended and incubated in 50 mM Tris, pH 7.4, with 0.2 nM [^3H]prazosin, in a final volume of 1.02 ml for 30 min at 25° C., in absence or presence of competing drugs. Non-specific binding was determined in the presence of 10 μM phentolamine. The incubation was stopped by rapid filtration through 0.2% polyethyleneimine pretreated Schleicher & Schuell GF52 filters using a Tomtec (PerkinElmer) cell harvester. The filters were washed with 3×1 ml of ice-cold Tris buffer, dried and the radioactivity was measured in a Betaplate (Wallac) liquid scintillation counter.
The inhibition of specific binding by the compounds was analysed to estimate the IC50 value by the non-linear curve-fitting program Allfit (De Lean et al. Am. J. Physiol. 235, E97-E102, 1978). The IC50 value is converted to an affinity constant (Ki) by the equation of Cheng & Prusoff (Biochem. Pharmacol. 22: 3099–3108, 1973).

T1 sequence (P19020 whole entry): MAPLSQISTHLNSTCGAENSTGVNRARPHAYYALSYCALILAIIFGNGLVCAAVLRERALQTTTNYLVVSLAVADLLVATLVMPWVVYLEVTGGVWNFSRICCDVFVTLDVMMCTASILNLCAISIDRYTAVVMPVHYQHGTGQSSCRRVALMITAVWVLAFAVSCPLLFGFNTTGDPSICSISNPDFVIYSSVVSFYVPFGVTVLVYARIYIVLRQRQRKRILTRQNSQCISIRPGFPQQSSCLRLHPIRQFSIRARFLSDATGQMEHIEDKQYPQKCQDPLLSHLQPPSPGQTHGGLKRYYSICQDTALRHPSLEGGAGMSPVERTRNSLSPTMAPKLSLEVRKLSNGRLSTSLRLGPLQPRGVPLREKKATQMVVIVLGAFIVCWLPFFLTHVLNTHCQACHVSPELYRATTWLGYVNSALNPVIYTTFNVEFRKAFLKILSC

| Ki [1] [nM] | D3/5-HT1A [1] | Ki [2] [nM] | α1a/5-HT1A [2] | SMILES |
| --- | --- | --- | --- | --- |
| 20 | 54 | 24 | 65 | COc1ccccc1N1CCN(CC[C@H](c2ccccc2F)[C@@H](O)C2CCCCC2)CC1 [Ex. 1Y, 1-[(3R,4S)-4-cyclohexyl-4-hydroxy-3-(2-fluorophenyl)-butyl]-4-(2-methoxyphenyl)-piperazine] |
| 12.5 | 96 | 18 | 138 | COc1ccccc1N1CCN(CC[C@@H](c2ccccc2F)[C@H](O)C2CCCCC2)CC1 (racemic) [Ex. 1, 1-[(SR-RS)-4-cyclohexyl-4-hydroxy-3-(2-fluorophenyl)-butyl]-4-(2-methoxyphenyl)-piperazine] |
| 7 | 11 | 51 | 78 | COc1ccccc1N1CCN(CC[C@H](c2ccccc2)[C@@H](O)C2CCCCC2)CC1 (racemic) [Ex. 5, 1-[(RS,SR)-4-Cyclohexyl-4-hydroxy-3-phenyl-butyl]-4-(2-methoxyphenyl)-piperazine, reference compound] |
| 3 | 12 | 44 | 183 | COc1ccccc1N1CCN(CC[C@H](c2ccccc2F)[C@H](O)C2CCCCC2)CC1 [Ex. 2X, 1-[(3R,4R)-4-cyclohexyl-4-hydroxy-3-(2-fluorophenyl)-butyl]-4-(2-methoxyphenyl)-piperazine] |
